Reference: patent publication US7390925B2, “Oxime-containing acyl guanidines as beta-secretase inhibitors” (Bristol-Myers Squibb Company, priority 2006, dated 2008)

Molecular target: T1, BACE1 enzyme (Homo sapiens, UniProt P56817)
T1 construct: derived from HEK293 cells (Simmons, N. L. (1990)); endogenous in cells; washed 48,000 x g pellet of cell homogenate
Assay: Radioligand displacement assay with a radiolabeled BACE inhibitor on HEK293-9B.A1 cell homogenate
Format: binding
Conditions: displacement of 1 nM radioligand, HEK293-9B.A1 homogenate, pH 5.0, 1.5 hr at 25° C.; read-out: Activity Rating (activity based on IC50 values)
Text: There are a number of methods by which inhibitors of the BACE enzyme can be identified experimentally. The enzyme can be obtained from membrane samples from natural tissues or cultured cells or can be expressed recombinantly in a host cell by well known methods of molecular biology. The whole enzyme or a portion thereof can be expressed, for example, in bacterial, insect or mammalian cells to obtain a catalytically active enzyme species. The enzymatic activity and/or ligand binding capability of the enzyme can be assessed within these membrane samples, or the enzyme can be purified to varying extents. As an illustrative example, the nucleic acid sequence encoding the pro and catalytic domains of human BACE can be appended on the 5′ end with an untranslated and signal sequence from the gene for acetylcholinesterase, and on the 3′ end with a sequence encoding a poly-histidine tag. This cDNA can then be expressed in Drosophila melanogaster S2 cells in which the signal and pro sequences of the transcribed/translated protein are removed by cellular proteases and the catalytic domain, appended by a C-terminal poly-histidine tag, is secreted out into the cellular medium. The enzyme can then be purified from the culture medium by nickel affinity chromatography by methods well known to those trained in the art [Mallender, W. et al., (2001) “Characterization of recombinant, soluble beta-secretase from an insect cell expression system.” Mol. Pharmacol. 59: 619-626]. Similar strategies for expressing and purifying various forms of BACE in bacterial, mammalian and other cell types would be known to one skilled in the art. A preferred method for determining the potency of a test compound in binding to the BACE enzyme is by monitoring the displacement of a suitable radioligand.
Radioligand displacement assays with a radiolabeled BACE inhibitor (WO 2004 013098, compound 3, where the methoxy group is substituted for C(^3H)3) were carried out using standard methods (Keen, M. (1999) in Receptor Binding Techniques (Walker, J. M. ed) p. 106 Humana Press, Totowa, N. J.). The HEK293-9B.A1 cell line, which overexpresses the BACE1 enzyme, was derived from HEK293 cells (Simmons, N. L. (1990) A cultured human renal epithelioid cell line responsive to vasoactive intestinal peptide. Exp. Physiol. 75:309-19.) by RAGE™ (Harrington, J. J. et al. (2001) Creation of genome-wide protein expression libraries using random activation of gene expression. Nat. Biotechnol. 19:440-5.; U.S. Pat. Nos. 6,410,266 and 6,361,972). T225 flask cultures of HEK293-9B.A1 were grown to 80% confluency in DMEM supplemented with 2 mM L-glutamine, 10 μg/ml penicillin, 10 μg/ml streptomycin, 3 μg/ml puromycin, 100 nM methotrexate, and 10% fetal bovine serum (Invitrogen, Carlsbad, Calif.), harvested, and resuspended at 2×10^8 cells per 10 ml of lysis buffer consisting of 50 mM HEPES pH 7.0 containing a protease inhibitor cocktail of AEBSF 104 μM, aprotinin 80 nM, leupeptin 2 μM, bestatin 4 μM, pepstatin A 1.5 μM, and E-64 1.4 μM (0.1% of protease inhibitor cocktail P8340, Sigma-Aldrich, St. Louis, Mo.) at 4° C. The resuspended cells were homogenized using a Polytron (Brinkman, Westbury, N.Y.) at setting 6 for 10 sec., then centrifuged at 48,000×g for 10 min. The resulting pellet was washed by repeating the resuspension, homogenization and centrifugation steps. The final pellet was resuspended in buffer at 4° C. to yield a total protein concentration of 5 mg/ml, then aliquots were frozen in liquid nitrogen for further storage at −70° C. Immediately before carrying out a binding assay, an aliquot of cell homogenate was thawed and diluted to a concentration of 100 μg/ml in assay buffer consisting of 50 mM HEPES pH 5.0 and 0.1% CHAPSO. […]

T1 sequence (P56817 46-501): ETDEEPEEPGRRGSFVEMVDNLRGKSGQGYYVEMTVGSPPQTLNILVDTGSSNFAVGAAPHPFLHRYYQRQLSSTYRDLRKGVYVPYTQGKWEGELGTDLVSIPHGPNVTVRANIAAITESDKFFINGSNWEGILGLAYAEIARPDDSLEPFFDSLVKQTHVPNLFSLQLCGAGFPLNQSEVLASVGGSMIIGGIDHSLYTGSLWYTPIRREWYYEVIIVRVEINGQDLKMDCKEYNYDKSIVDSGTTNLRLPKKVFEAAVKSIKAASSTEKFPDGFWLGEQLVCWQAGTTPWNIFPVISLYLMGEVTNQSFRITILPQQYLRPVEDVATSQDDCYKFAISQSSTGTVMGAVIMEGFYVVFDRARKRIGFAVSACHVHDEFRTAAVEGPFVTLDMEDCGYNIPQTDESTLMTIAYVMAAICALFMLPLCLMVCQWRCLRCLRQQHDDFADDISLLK

First: N-(2-(4-Acetamido-3,5-dichlorophenyl)-1-aminoethylidene)-3-(4-fluorophenyl)-3-(methoxyimino)propanamide [Example 15]
Second: N-(2-(4-Acetamido-3,5-dichlorophenyl)-1-aminoethylidene)-3-(methoxyimino)-3-(2-methoxyphenyl)propanamide [Example 12]
The IC50 of the first is lower: under 100 nM for the first, 100 to 1000 nM for the second. The first is the more potent here.

Going from “N-(1-Amino-2-(4-amino-3,5-dichlorophenyl)ethylidene)-3-(methoxyimino)-3-(2-methoxyphenyl)propanamide [Example 13]” to `CON=C(CC(=O)/N=C(\N)Cc1cc(Cl)c(NC(C)=O)c(Cl)c1)c1ccc(OC)cc1` [Example 1, N-(2-(4-Acetamido-3,5-dichlorophenyl)-1-aminoethylidene)-3-(methoxyimino)-3-(4-methoxyphenyl)propanamide], the IC50 falls from over 1000 nM to under 100 nM.

Compared with “N-(1-Amino-2-(4-amino-3,5-dichlorophenyl)ethylidene)-3-(methoxyimino)-3-(4-methoxyphenyl)propanamide [Example 2]”, “N-(2-(4-Acetamido-3,5-dichlorophenyl)-1-aminoethylidene)-3-(4-nitrophenyl)-3-(methoxyimino)propanamide [Example 16]” is lower in IC50: 100 to 1000 nM for the first, under 100 nM for the second.

First: N-(2-(4-Acetamido-3,5-dichlorophenyl)-1-aminoethylidene)-3-(ethoxyimino)-3-(4-methoxyphenyl)propanamide [Example 5]
Second: N-(1-Amino-2-(4-amino-3,5-dichlorophenyl)ethylidene)-3-(methoxyimino)-3-(4-nitrophenyl)propanamide [Example 17]
The IC50 of the first is lower: under 100 nM for the first, 100 to 1000 nM for the second.

“N-(1-Amino-2-(4-amino-3,5-dichlorophenyl)ethylidene)-3-(ethoxyimino)-3-(4-methoxyphenyl)propanamide [Example 6]” and “N-(1-Amino-2-(4-amino-3,5-dichlorophenyl)ethylidene)-3-(methoxyimino)-3-phenylpropanamide [Example 9]” fall in the same range of IC50: 100 to 1000 nM for the first, 100 to 1000 nM for the second.

`COc1ccc(C(CC(=O)N=C(N)NCc2cc(Cl)c(NC(C)=O)c(Cl)c2)=NOCC(C)C)cc1` [Example 18, N-((4-acetamido-3,5-dichlorobenzylamino)(amino)-methylene)-3-(isobutoxyimino)-3-(4-methoxyphenyl)propanamide] and `CON=C(CC(=O)/N=C(\N)NCc1cc(Cl)c(N)c(Cl)c1)c1c[nH]c2ccccc12` [Example 20, N-((4-amino-3,5-dichlorobenzylamino)(amino)methylene)-3-(1H-indol-3-yl)-3-(methoxyimino)propanamide] fall in the same range of IC50: 100 to 1000 nM for the first, 100 to 1000 nM for the second.

Compared with `COc1ccc(C(CC(=O)/N=C(\N)NCc2cc(Cl)c(N)c(Cl)c2)=NOCC(C)C)cc1` [Example 19, N-((4-amino-3,5-dichlorobenzylamino)(amino)methylene)-3-(isobutoxyimino)-3-(4-methoxyphenyl)propanamide], `CON=C(CC(=O)/N=C(\N)NCc1cc(C)c(C(=O)CN(C)C)c(Cl)c1)c1c[nH]c2ccccc12` [Example 22, N-((3-chloro-4-(2-(dimethylamino)acetyl)-5-methylbenzylamino)(amino)-methylene)-3-(1H-indol-3-yl)-3-(methoxyimino)propanamide] is lower in IC50: over 1000 nM for the first, 100 to 1000 nM for the second.

Going from `CON=C(CC(=O)/N=C(\N)NCc1cc(Cl)c(NC(C)=O)c(Cl)c1)c1c[nH]c2ccccc12` [Example 21, N-((4-acetamido-3,5-dichlorobenzylamino)(amino)methylene)-3-(1H-indol-3-yl)-3-(methoxyimino)propanamide] to “N-(1-Amino-2-(3,5-dichlorophenyl)ethylidene)-3-(methoxyimino)-3-(4-methoxyphenyl)propanamide [Example 3]”, the IC50 rises from under 100 nM to over 1000 nM. The first is the more potent here.

“N-(1-Amino-2-(3-chloro-4-(2-(dimethylamino)acetamido)-5-methylphenyl)-ethylidene)-3-(methoxyimino)-3-(4-methoxyphenyl)propanamide [Example 4]” and “N-(2-(4-Acetamido-3,5-dichlorophenyl)-1-aminoethylidene)-3-(methoxyimino)-3-(3-methoxyphenyl)propanamide [Example 11]” fall in the same range of IC50: 100 to 1000 nM for the first, 100 to 1000 nM for the second.
